Experimental data: patent publication US7807368B2, “Cyclin-dependent kinase inhibitors as targets for opiod growth factor treatment” (priority 2006, dated 2010)

Key:
Cdk2 kinase activity = assay: Immunoprecipitation and H1 kinase assay (Cdk2 kinase activity) in BxPC-3 cells; type: cell-based, human
Method: To quantify expression levels or kinase activity, the optical density of each band was determined by densitometry and analyzed by QuickOne (Bio-Rad Laboratories). Each value was normalized to β-actin from the same blot. To report the changes due to OGF treatment, we calculated the fold increase by dividing the normalized value from the OGF treated samples by the normalized value of control samples at each time point; thus, increases due to OGF have values greater than one, and decreases due to OGF have values less than one. For all Western blot analyses, 3 or more independent experiments were performed.
To immunoprecipitate protein complexes, cell extracts were prepared as follows: 2×10^6 cells per sample were rinsed in cold PBS followed by lysis in 200 μl immunoprecipitation buffer (1% NP-40, 10 mM HEPES (pH 7.5), 200 mM NaCl, 5 mM EDTA, 50 mM NaF, 0.2 mM sodium orthovanidate, 1 mM phenylmethyl sulfonyl fluoride, 2 mM dithiothreitol), 1× Halt™ protease inhibitorcocktail (Pierce, Rockford, Ill.)). For each immunoprecipitation reaction mixture, a total of 500 μg of protein extract was used. To each sample, 50 μl of protein A beads (Santa Cruz Biotechnology) were added and incubated at 40° C. for 30 min with rotation. Beads were removed by centrifugation at 14000 rpm for 15 s. The lysates were then subjected to immunoprecipitation using 10 μl of polyclonal antibody against Cdk2 and incubated at 40° C. for 1.5 hours with rotation, followed by addition of 20 μl of protein A beads as the immune complex binding agent.
Samples were further incubated at 40 C for 1 hour with rotation. Beads were pelleted by centrifugation at 14000 rpm for 15 s, washed three times with 500 μl ice-cold immunoprecipitation wash buffer (1% NP-40, 50 mM HEPES, 150 mM NaCl, 1 mM EDTA, 1 mM dithiothreitol), and followed by two washes with ice-cold H1 kinase buffer (50 mM HEPES (pH 7.5), 10 mM MgCl2, 10 mM MnCl2, 1 mM dithiothreitol). Immunoprecipitates were incubated with 10 μCi γ^32P-ATP, and 1 μg of histone H1 (Roche) as the substrate for Cdk2. After incubation for 30 min at 30° C., with occasional mixing, the reaction was stopped by the addition of 2× sample loading buffer (Santa Cruz Biotechnology). Proteins were separated by a 12% SDS-PAGE gel, and the Cdk2 kinase activity pattern was visualized by autoradiography of phosphorylated H1.

p16 [1] = assay: Western blot of p16 in CAL-27 cells; type: cell-based, human; conditions: synchronized CAL-27 cells, 9 h
Method: (§1) The SCC-1 (UM-SCC-1) cell line was obtained from the University of Michigan Cancer Research Laboratory, and CAL-27 and SCC-4 cells were obtained from the American Type Culture Collection (Manassas, Va.). SCC-1 and CAL-27 cells were cultured in DMEM media, whereas SCC-4 cells were grown in 1:1 Hams F-12 DMEM media. All media was supplemented with 10% fetal bovine serum (HyClone, Logan, Utah), 1.2% sodium bicarbonate, and 5000 units/ml penicillin, 5 μg/ml streptomycin and 10 μg/ml neomycin. OGF was purchased from Sigma-Aldrich (St. Louis, Mo.), dissolved in sterile water, and used at a final concentration of 10^−6 M.
(§2) Synchronized cells (˜2×10^6) from each treatment were solubilized in 200 μl RIPA buffer (1×PBS, 10 μM IGEPAL, 1 mg/ml SDS, 5 mg/ml deoxycholic acid), containing protease and phosphatase inhibitors (2 μg/ml aprotinin, 3 mg/ml phenylmethyl sulfonyl fluoride (PMSF), 1 mM sodium orthovanidate, 1 μM okadaic acid). Total protein concentrations were measured using the DC protein assay kit (Bio-Rad Laboratories, Hercules, Calif.). Equal amounts of protein (40 μg) were subjected to 10% SDS-PAGE followed by transfer of proteins onto polyvinylidene difluoride (Millipore, Billerica, Mass.) using standard protocols. […]

[2] = tested on: human umbilical vein endothelial cells (HUVEC); assay: Growth of HUVEC; type: cell-based
Source text: Another normal cell line, human umbilical vein endothelial cells (HUVEC) has been subjected to OGF exposure. […] At 96 hr, OGF-treated cultures had 45.9% fewer cells than normal cultures.

p16 [3] = assay: Western blot of p16 in SCC-4 cells; type: cell-based, human; conditions: SCC-4 cells, 3 h
Method: as §1, §2

Substance: [Met^5]-enkephalin [OGF]
- Cdk2 kinase activity vs control cells at each respective time point (Cdk2 kinase activity; OGF for 15, 18 or 21 hours (FIG. 5)): significantly reduced
- decrease in Cdk2 kinase activity compared to control (Cdk2 kinase activity; OGF for 15 hours): 78%
- decrease in Cdk2 kinase activity compared to control (Cdk2 kinase activity; OGF for 18 hours): 46%
- decrease in Cdk2 kinase activity compared to control (Cdk2 kinase activity; OGF for 21 hours): 82%
- p16 expression relative to controls (p16 [1]): increased p16 expression
- cell number relative to control cultures ([2]; 10^-6 M OGF, 48, 72, and 96 hr): significant (p<0.01) reductions
- fewer cells than normal cultures ([2]; 10^-6 M OGF, 96 hr): 45.9%
- p16 expression relative to synchronized control cells (p16 [3]): induced p16 expression
